In US11517598B2 (priority 2016, dated 2022):
Entries after “also recorded” stand apart in the source; their conditions may differ. Like-named read-outs stand apart in the source and are kept apart here.

Tests used:
[1] = tested on: oncolytic VSVΔ51 in 786-0 renal carcinoma cells
[2] = tested on: CT26WT, 4T1, DBT, and Pan02 tumors; conditions: mouse, in vivo
VSVwt in 786-0 cells = type: cell-based, human
CT26WT tumors = conditions: mouse
[3] = tested on: Sindbis virus in 786-0 cells; type: cell-based, human
[4] = tested on: VSVΔ51 matrix (M) mRNA in 786-0 cells; type: cell-based, human
IFITM1 = type: cell-based, human
[5] = tested on: various human and rodent cancer cell lines
[6] = tested on: VSVΔ51 matrix (M) mRNA in CT26-WT colon cancer cells; type: cell-based, mouse
STAT2 = type: cell-based, human
[7] = tested on: HSV-1 (mutant N212) in 786-0 cells; type: cell-based, human
[8] = tested on: VSVΔ51 in GM38 fibroblasts; type: cell-based, human
[9] = tested on: CXCL9 in various human cancer cell lines; type: cell-based
[10] = tested on: VSVΔ51-GFP in normal lung, muscle and spleen tissue cores; type: cell-based, mouse
[11] = tested on: VSVΔ51-GFP in CT26WT and DBT tumor cores; type: cell-based, mouse
[12] = tested on: cytokine, chemokine and IFN stimulated gene expression in 786-0 cells; type: cell-based, human
CT26-LacZ tumors = conditions: mouse, in vivo
STAT1 = type: cell-based, human
[13] = mouse, in vivo
bilateral DBT tumors = conditions: mouse, in vivo
[14] = tested on: Measles virus in 786-0 cells; type: cell-based, human

Chain of IFITM1 (P13164 whole entry): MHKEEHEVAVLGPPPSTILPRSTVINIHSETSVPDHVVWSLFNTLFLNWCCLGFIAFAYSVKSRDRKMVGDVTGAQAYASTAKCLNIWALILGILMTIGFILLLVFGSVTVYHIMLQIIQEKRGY

CC(=O)N[C@@H](CS)C(=O)O [NAC, N-acetyl-L-cysteine, reference compound]
effect of NAC on vanadate-enhanced viral spread (viral titer) [1]: did not abrogate vanadate's capacity to enhance viral spread

Ammonium metavanadate
VSVΔ51 growth (viral titer, GFP positive cell counts) [1]: effectively enhanced VSVΔ51 growth

Bis(maltolato) oxovanadium(IV) [BMOV]
VSVΔ51 growth (viral titer, GFP positive cell counts) [1]: effectively enhanced VSVΔ51 growth

Chromium(VI) oxide [Chromium trioxide, reference compound]
VSVΔ51 growth (viral titer) [1]: did enhance viral growth but only at a single dose tested | toxicity (not shown) [1]: highly toxic in comparison to orthovanadate

Sodium orthovanadate
effect on viral growth when given post infection [1]: close to nil | impact on viral growth with pre-treatment time [1]: increasingly evident with increasing pre-treatment time | number of virus-infected cells (GFP) [1]: marked increase in the number of virus-infected cells | pro-viral activity with metal chelating agent [1]: abrogated upon inclusion of L-Ascorbic Acid | viral output (viral titer by plaque assay) [1]: significantly increase viral output | virus-enhancing activity at different pH (protonation state) [1]: had no impact on its activity | yield of VSVΔ51 in single and multi-step growth curves [1]: more robustly enhanced the yield of VSVΔ51 when provided at low multiplicity of infection (MOI) compared to high MOI | survival, combination with VSVΔ51 [2]: significantly improved survival; also recorded: significantly prolonged over virus alone | virus-associated luciferase gene expression (IVIS) [2]: robustly enhanced virus-associated luciferase gene expression | wtVSV yield (VSVwt in 786-0 cells): modest improvements in wtVSV yield | T-cells within the tumor (CT26WT tumors; in vivo): increased accumulation of T-cells within the tumor | re-challenge of cured mice with the same cancer cells (CT26WT tumors; in vivo): became immune to re-challenge | in vivo virus-enhancing activity at pH 7 (CT26WT tumors; pH 7): retained its activity | yield of Sindbis virus [3]: improved | VSVΔ51 matrix (M) protein mRNA and/or viral genomes [4]: increased the production of VSVΔ51 matrix (M) protein mRNA and/or viral genomes | protein expression levels of IFITM1 (IFITM1): potently repressed | cytotoxicity (cell viability) with VSVΔ51 co-infection [5]: A similar effect | VSVΔ51 matrix (M) protein mRNA and/or viral genomes [6]: increased the production of VSVΔ51 matrix (M) protein mRNA and/or viral genomes | IFNβ-induced phosphorylation of STAT2 (STAT2): inhibited the IFNβ-induced phosphorylation of STAT2 | STAT2 nuclear accumulation (STAT2): reduced its nuclear accumulation | localisation of STAT-2 (immunofluorescence) (STAT2): remained mostly in the cytoplasm | HSV-1 growth [7]: robustly inhibited | VSVΔ51 viral growth in normal cells [8]: viral growth was not enhanced | CXCL9 secretion (ELISA) [9]: vanadate-mediated increase | growth of VSVΔ51-GFP in normal tissue cores (fluorescence) [10]: not in normal tissue cores | growth of VSVΔ51-GFP in tumor cores (fluorescence) [11]: robustly increased the growth of the virus in tumor cores | gene set-enrichment (GOrilla), compound alone [12]: induced inflammatory responses, and immune system processes | enhancing effect on survival (CT26-LacZ tumors): completely abrogated | IFN-β induced phosphorylation of STAT1 (STAT1): not altered by treatment with vanadate | IFNβ-induced STAT1 phosphorylation and nuclear accumulation (STAT1): did not similarly affect STAT1 | localisation of activated STAT1 (immunofluorescence) (STAT1): translocated to the nucleus | phosphorylation of STAT1 at baseline (STAT1): increased by vanadate at baseline | toxicity [13]: evidence of toxicity was observed | toxicity ([13]; pH 7): greatly reduced | tumor regression with monotherapy (bilateral DBT tumors): some tumors did regress | virus-associated luminescence (bilateral DBT tumors): uniquely enhanced by vanadate in the injected tumors on the right side | yield of Measles virus [14]: improved

Tungsten [reference compound]
VSVΔ51 growth (viral titer, GFP positive cell counts) [1]: neither Manganese, Molybdene, or Tungsten oxide salts could enhance VSVΔ51 growth

Vanadium(IV) oxide sulfate hydrate [VS]
VSVΔ51 growth (viral titer, GFP positive cell counts) [1]: effectively enhanced VSVΔ51 growth

Vanadium(V) oxytriethoxide [VOx]
VSVΔ51 growth (viral titer, GFP positive cell counts) [1]: effectively enhanced VSVΔ51 growth

potassium permanganate [Manganese, reference compound]
VSVΔ51 growth (viral titer, GFP positive cell counts) [1]: neither Manganese, Molybdene, or Tungsten oxide salts could enhance VSVΔ51 growth
